Data published in US5985856A, “Water soluble prodrugs of secondary and tertiary amine containing drugs and methods of making thereof” (University of Kansas, priority 1998, dated 1999).
In brackets after ≈: the same amount, converted by molar mass. Where two headings read alike, the source gives them in different places. Values belong to the molecule of their own block, whether it stands above or below them.

Columns and labels:
in vivo = conditions: dog, iv
Procedure: (§1) Cinnarizine for i.v. injection was prepared in a 10 mM phosphate buffer solution at pH 4.5 at a concentration of 12.5 mg/10 ml (3.39 mM) along with 37.5 mM sulfobutylether 4 beta-cyclodextrin as a solubilizing excipient. The cyclodextrin solution (10 ml) was prepared first and the pH adjusted to 3.5 with HCl. The cinnarizine was then added and the solution was sonicated for three hours and subsequently stirred overnight. The pH was then adjusted to 4.5 with NaOH along with the addition of 29 mg of NaCl to adjust for isotonicity. The solution was then passed through a 0.22 μM nylon-membrane filter just prior to administration. The prodrug injection was prepared by dissolving 16.97 mg or cinnarizine prodrug in 10 ml of 0.9% NaCl sterile solution (3.39 mM) for injection. The solution was passed through a 0.22 μM nylon-membrane filter just prior to injection.
(§2) The evaluation of the cinnarizine plasma concentration versus time was conducted with a male beagle dog weighing 11.1 kg. The dog received the cinnarizine injection followed by a two-week washout period then received the prodrug injection in an equal molar quantity. Samples were taken from the dog prior to dosing (10 ml blank plasma) and 2, 6, 10, 20, 40 min and 1, 2, 4, 6, 8, 24 hours post-dosing (3 ml each). Blood samples were drawn from either cephalic, saphenous, or jugular vein. The samples were centrifuged for 10 minutes and 1 ml of plasma was measured and frozen at -20° C. prior to sampling by HPLC. The dog received a regular diet between experiments and was fasted the day of the experiment.
(§3) Plasma concentrations of cinnarizine were determined by HPLC with fluorescence detection. To each one milliliter of plasma was added: 100 μL of acetonitrile-H2O (70:30, v/v), containing 40 μg meclizine (internal standard), and 100 μL of 0.5 M HCl. The plasma sample was then vortexed for 30 seconds. One ml of carbon tetrachloride was then combined with the sample for an additional one minute of vortexing. Samples were then centrifuged for ten minutes after which the carbon tetrachloride was removed and evaporated to dryness under a stream of dry nitrogen. The residue was then redissolved in 200 μL of acetonitrile-H2 O (70:30, v/v) prior to sampling by HPLC. The results were calculated from peak area ratios. A six-point standard curve was obtained using the above procedure with addition of cinnarizine concentrations in the range of 5.5 to 550 ng/ml of plasma. A three-point calibration was performed on the day of the study using high, medium and low cinnarizine concentrations. This calibration was used for the quantification of cinnarizine concentration in the samples.
(§4) The HPLC system consisted of a Shimadzu LC-6A pump (Kyoto, Japan), a Rheodyne 7125 injector (Cotati, Calif.), a Shimadzu RF-535 Fluorescence HPLC monitor (Kyoto, Japan), and a Shimadzu CR-601 integrator (Kyoto, Japan). The HPLC conditions were as follows: injection volume, 50 μL; flow rate, 1.5 ml/min; excitation at 260 nm and emission at 315 nm. The stationary phase was a C18 ODS Hypersil reverse phase column (15 cm×4.6 mm i.d., 5 μM). The mobile phase was a 7 to 3 ratio of aceronitrile to buffer, respectively. The buffer consisted of 25 mmole potassium dihydrogen phosphate (adjusted to pH 3.9 with phosphoric acid) and 10 mM tetrabutyl ammonium dihydrogen phosphate.
(§5) Pharmacokinetic analysis was performed on the semilogarithmic plot of cinnarizine plasma concentration versus time post dosing for both the cinnarizine and cinnarizine prodrug injections. […] The equation had the form: C=A1e^-A1t +A2e^-A2t +A3e^-A3t, where t is time. Plasma terminal half life (t1/2) is calculated from t1/2 =0.693/λ3.

[1] = Pharmacokinetic evaluation of cinnarizine plasma concentration after i.v. injection; conditions: male beagle dog
Procedure: as §1, §2, §3, §4, §5

physchem [2] = type: physicochemical
Procedure: Loxamine succinate is obtained from Research Biochemicals Incorporated (Natick, Mass.). […] Each pH solution is a 0.05 M buffered solution with an ionic strength adjusted to μ=0.2 with NaCl. The pH values along with their buffer composition are listed: pH 3.24, HCl/CH3 COONa; pH 3.96 and 4.96, CH3 COOH/CH3 COONa; pH 5.82-7.94, NaH2 PO4 /Na2 HPO4; pH 8.95 and 9.98, H3 BO3 /NaOH. The volume of buffer used in the experiments varies; samples with pH equal to or below 4.96 utilize 2 ml of buffer whereas the higher pH samples has a volume of 5 ml. […] The vials are then capped, sonicated and vortexed prior to submersion in a constant temperature shaking water bath at 25° C. The samples are shaken at a rate of 100 shakes/min. for at least 24 hours. […] The filtrates/supernatants are then appropriately diluted for quantification by HPLC. […] A C-18 reversed phase column (150×4 mm, ODS Hypersil, 5 μm particle size) is used for the analysis. The HPLC assays are carried out using UV detection at 254 nm. The mobile phase consists of acetonitrile and 25 mM of aqueous potassium phosphate monobasic solution adjusted to pH 3.8 with phosphoric acid. 0.15% of triethylamine is contained in the aqueous buffer.

[3] = Preliminary visual solubility estimates of synthesized prodrugs; type: physicochemical; conditions: preliminary visual estimate, pH 7.4
Excerpt: The present prodrugs are designed to increase the aqueous solubility and safety of amine-containing drugs. Preliminary visual solubility estimates for each of the prodrugs are listed below in Table 2.

[4] = dog, in vivo
Procedure: as §1, §2, §3, §4, §5

[5] = pKa determination by 31P NMR method; conditions: 10% d2o in h2o
physchem [6] = type: physicochemical; conditions: for solubility: 24 h
Procedure: Each pH solution contains 0.05 M buffer with an ionic strength adjusted to μ=0.2 with NaCl. The pH 3 buffer composition is HCl/CH3 COONa; whereas, the pH 7.4 buffer composition is NaH2 PO4 /Na2 HPO4. The volume of buffer used in the experiments is 150 μl. To this is added excess of the loxapine prodrug in one ml glass screw top vials. The vials are then capped, sonicated and vortexed prior to submersion in a constant temperature shaking water bath at 25° C. The samples are shaken at a rate of 100 shakes/min. for at least 24 hours. The suspensions are then placed in a micro centrifuge to precipitate the excess drug. A volume of 50 μl of the supernatant is then appropriately diluted with water for quantification by reverse phase HPLC. […] A C-18 reversed phase column (150×4 mm, ODS Hypersil, 5 μm particle size) is used for the analysis. The HPLC assays are carried out using UV detection at 254 nm. The mobile phase consists of acetonitrile and 25 mM of aqueous potassium phosphate monobasic solution adjusted to pH 3.8 with phosphoric acid. 0.15% of triethylamine is contained in the aqueous buffer. The ratio of organic:aqueous is 32:68. The retention time is 4.2 min. when the flow rate is adjusted to 1 ml/min.

physchem [7] = type: physicochemical; conditions: water
Procedure: A 0.01 M quinuclidine prodrug aqueous solution is titrated using a burette containing a 0.1 N sodium hydroxide volumetric standard solution obtained from Aldrich Chemical Company (Milwaukee, Wis.). […] This experiment is conducted at 25° C.
The first ionization constant, Ka1, is expected to be low and to be of little physiological importance; however, Ka2 is of much greater importance. With this in mind, the second ionization constant (Ka2) for the phosphate monoester promoiety of the quinuclidine was determined by two methods. These methods were potentiometric titration and ^31 P NMR. The potentiometric titration is by far the most traditional and accepted means for estimating pKa values; however, it has one main disadvantage. It requires significant quantities of, difficult to synthesize, prodrug. The quinuclidine prodrug is, by far, the simplest prodrug to synthesize and was chosen for the following experiments for that reason. For the potentiometric titration method, the volume of base added was plotted against the change in pH. This plot allows one to determine the volume of base required to reach the endpoint of the titration.

physchem [8] = conditions: 10% d2o in h2o
[9] = 0.05 m hcl/ch3coona buffer, pH 3
[10] = 0.05 m nah2po4/na2hpo4 buffer, pH 7.4

SMILES: C(=C\c1ccccc1)/CN1CCN(C(c2ccccc2)c2ccccc2)CC1 [Cinnarizine]
Vd (in vivo): 21.7 L/kg
clearance (in vivo): 19.5 mL/min/kg
half-life (in vivo): 720 min
observable signs of discomfort or toxicity after injection [1]: no observable signs of discomfort or toxicity

solubility (physchem [2]; 0.05 m buffer, aqueous buffer): 12.6 µg/mL (≈ 0.0384 mM)
solubility (physchem [2]; hcl/ch3coona buffer, pH 3.24): 8230 µg/mL (≈ 25.1 mM)
SMILES: CN1CCN(C2=Nc3ccccc3Oc3ccc(Cl)cc32)CC1 [Loxapine free base, Loxapine]

solubility [3]: > 5000 µg/mL
SMILES: CCCCc1oc2ccccc2c1C(=O)c1cc(I)c(OCC[N+](CC)(CC)COP(=O)([O-])O)c(I)c1 [amiodarone prodrug]

SMILES: O=P([O-])(O)OC[N+]1(C/C=C/c2ccccc2)CCN(C(c2ccccc2)c2ccccc2)CC1 [cinnarizine prodrug]
solubility [3]: > 5000 µg/mL
observable signs of discomfort or toxicity after injection [1]: no observable signs of discomfort or toxicity
conversion of prodrug to cinnarizine upon intravenous administration [4]: rapidly and quantitatively converted to cinnarizine
Cl ([4]; iv): 1.17 L/h/kg
Vd ([4]; iv): 21.2 L/kg
t1/2 (plasma terminal half life of cinnarizine) ([4]; iv): 12.6 h

SMILES: C[N+]1(COP(=O)([O-])O)CCN(C2=Nc3ccccc3Oc3ccc(Cl)cc32)CC1 [loxapine prodrug]
solubility [3]: > 600000 µg/mL
pKa [5]: 4.7
solubility (physchem [6]; [9]): 290.5 ± 2.9 mg/mL (≈ 664 mM)
solubility at 24 h (physchem [6]; [9]): 290.5 ± 2.9 mg/mL (≈ 664 mM)
solubility (physchem [6]; [10]): 648.2 ± 0.6 mg/mL (≈ 1480 mM)
solubility at 24 h (physchem [6]; [10]): 648.2 ± 0.6 mg/mL (≈ 1480 mM)
solubility limit relative to the concentration used in the parenteral formulation (50 mg/ml loxapine) (physchem [6]; without cosolvents): 9.7 times

SMILES: O=P([O-])(O)OC[N+]12CCC(CC1)CC2 [quinuclidine prodrug]
pKa (physchem [7]): 5
pKa (physchem [8]): 4.9
